Reference: patent US5004758A, “Water soluble camptothecin analogs useful for inhibiting the growth of animal tumor cells” (priority 1988, dated 1991)
Counter-ions that a name gives are not always drawn. Like-named read-outs stand apart in the source and are kept apart here.

Columns and labels:
[1] = in vivo; conditions: mouse, ip
Description: (§2) Tumors used in these studies--P388 leukemia and its doxorbicin--and mitoxanrone-resistant sublines, L1210 leukemia, B16 melanoma, B16 melanoma/F10 subline, M5076 sarcoma and colon carcinoma 26--are maintained by serial transplantation in syngeneic strains of mice. For the leukemias, these tumors are maintained in DBA/2 mice. The M5076 sarcoma, the B16 melanoma and its F10 subline are maintained in C57B1/6 mice and the colon sarcinoma 26 is maintained in BALB/c mice. The leukemias and the M5076 sarcoma are serially transplanted i.p. as ascites cell suspensions while the B16 melanoma lines and the colon carcinoma 26 are serially transplanted as s.c. solid tumors.
(§3) For therapeutic trials, tumors are aseptically removed from donor mice and prepared as suspensions for implantation ip into test animals. The test animals for the colon carcinoma 26 are female BALB/c mice (20-25 gm). The test animals for the other tumor models are syngeneic female F1 hybrid B6D2F1 mice (C57B1/6 x DBA/2). The inoculum level varies with the type of tumor: P388 leukemia is inoculated at 10^6 cells per mouse, L1210 leukemia at 10^5 or 10^6 cells per mouse, M5076 sarcoma at 5×10^6 cells per mouse. For implantation of the B16 melanoma lines and the colon carcinoma 26, s.c. tumors from donor mice are minced and homogenized in loose fitting teflon glass homogenizer to give a tumor brei. The inoculum levels are 0.5 ml of a 10 percent (w:v) brei of the B16 melanoma lines and 0.5 ml of a 5 percent (w:v) brei of colon carcinoma 26. After tumor inoculation, mice randomized to treatment groups comprised of 6-8 mice each. In each experiment, there are three groups of untreated control mice. Drugs are dissolved or suspended in appropriate aqueous vehicles and given by a variety of routes and schedules of administration over a range of dose levels. Animals are housed in shoebox cages and are monitored daily for mortality for 30 (L1210), 45 (P388) or 60 (B16, M5076, colon 26) days.

[2] = test system: ip P388 leukemia; conditions: mouse, in vivo, ip
Description: (§4) Increase in lifespan (ILS) is based on median survival time of groups of 6 mice. Net tumor cell kill (NCK) is calculated from median survival time by standard methods, since survival time is a linear function of the log tumor cell burden.
Animals were implanted ip with 10^6 cells. Increase in lifespan (ILS) is based on median survival time of groups of 6 mice relative to untreated controls. Long-term survivors were tumor-free on Day 45.
as §2, §3

[3] = Aqueous solubility; type: physicochemical
[4] = test system: P388/Doxorubicin; assay: ip P388/Doxorubicin multidrug resistant subline in mice; conditions: for ILS / NCK (net tumor cell kill): P388/Doxorubicin, ip, Days 1 and 5
Description: as §4
For the leukemias, these tumors are maintained in DBA/2 mice. […] The leukemias and the M5076 sarcoma are serially transplanted i.p. as ascites cell suspensions while the B16 melanoma lines and the colon carcinoma 26 are serially transplanted as s.c. solid tumors.
For therapeutic trials, tumors are aseptically removed from donor mice and prepared as suspensions for implantation ip into test animals. […] The test animals for the other tumor models are syngeneic female F1 hybrid B6D2F1 mice (C57B1/6 x DBA/2). The inoculum level varies with the type of tumor: P388 leukemia is inoculated at 10^6 cells per mouse, L1210 leukemia at 10^5 or 10^6 cells per mouse, M5076 sarcoma at 5×10^6 cells per mouse. […] After tumor inoculation, mice randomized to treatment groups comprised of 6-8 mice each. In each experiment, there are three groups of untreated control mice. Drugs are dissolved or suspended in appropriate aqueous vehicles and given by a variety of routes and schedules of administration over a range of dose levels. Animals are housed in shoebox cages and are monitored daily for mortality for 30 (L1210), 45 (P388) or 60 (B16, M5076, colon 26) days.

[5] = test system: IEC-6 (rat intestinal epithelium); assay: Cytotoxicity to normal rodent cells in culture; type: cell-based
Description: (§1) The cell lines are used and maintained as monolayer cultures in Minimal Essential Media (Grand Island Biological Co., Grand Island, N.Y.) supplemented with 10% fetal calf serum in a 5% CO2 humidified incubator at 37° C. Various concentrations of a Formula (I) compound under sterile conditions were allowed to react for 2 hours followed by aspiration of medium or were exposed continuously. Plates are incubated for 7 days at 37° C. in a CO2 incubator. Medium was aspirated and cells were fixed and stained with ethanol and Geisma stain. The surviving cell population was determined by scanning the plates with an image analyzer. The percent inhibition of proliferation was determined relative to cells incubated in the absence of drug and the 50 percent inhibitory concentration (IC50) was determined by interpolation.

[6] = test system: NRK52E (rat kidney epithelium); assay: Cytotoxicity to normal rodent cells in culture; type: cell-based; conditions: NRK-52E
Description: as §1

[7] = test system: sc B16 melanoma; conditions: for ILS: mouse, in vivo; for Tumor growth inhibition (TGI) / Mice without Palpable Tumors: sc B16
Description: Inhibition of tumor growth (TGI) is based on mean tumor volume of groups of 7 or 8 mice relative to untreated controls.
Tumors used in these studies are maintained by serial transplantation in syngeneic strains of mice C57BL/6 for Lewis lung carcinoma, B16 melanoma and its F10 subline, M5076 sarcoma and colon adenocarcinoma 38; BALB/c for colon carcinoma 26, ADJ-PC6 plasmacytoma Madison lung carcinoma and colon adenocarcinoma 51, C3H for mammary adenocarcinoma 16/c. With the exception of the M5076 sarcoma, which is maintained as a i.p ascites cell suspension, all of the tumors were serially transplanted as s.c. solid tumors.
For therapeutic trials, tumors were aseptically removed from donor mice and prepared for implantation s.c. into test animals. The test animals for Lewis lung carcinoma, B16 melanoma and its F10 subline, M5076 sarcoma and colon adenocarcinoma 38 are syngeneic female F1 hybrid B6D2F mice (C57B1/6×DBA/2). ADJ-PC6 plasmacytoma and colon carcinoma 26 are evaluated in female BALB/c mice. Madison lung carcinoma and colon adenocarcinoma 51 are evaluated in syngeneic female F1 hybrid CD2F1 mice (BALB/c×DBA/2). Mammary adenocarcinoma 16/c is evaluated in female C3H mice. The inoculum varies with the tumor. Colon adenocarcinomas 38 is implanted as 2 mm fragments by trochar. M5076 sarcoma and ADJ-PC6 plasmacytoma are implanted as cell suspensions at 5×10^6 and 2×10^6 cells per mouse, respectively. Colon carcinoma 26, colon adenocarcinoma 51, Lewis lung carcinoma, Madison lung carcinoma and B16 melanoma and its F10 subline are implanted as tumor breis prepared as described above in a volume of 0.5 ml. The brei concentration was 10 percent (w:v) except for colon carcinoma 26 for which the brei concentration was 5 percent (w:v). After tumor inoculation, mice are randomized to treatment groups of 7 or 8 mice. In each experiment, there are three groups of untreated control mice.
Drugs are dissolved or suspended in appropriate aqueous vehicles and given by a variety of routes of administration and treatment schedules over a range of dosage levels. Animals are housed in shoebox cages and are monitored daily for mortality. […] Time for tumor measurement is dependent on the different rates of tumor growth of the different tumors: the most rapidly growing tumors such as the Lewis and Madison lung tumors, B16 melanoma and its F10 subline were measured between Days 12 and 16. The slower growing tumors were measured at later time points--17 days for M5076 sarcoma, 16 or 19 days for mammary adenocarcinoma 16/c, 19 days for ADJ-PC6 plasmacytoma and colon carcinoma 26, 24 days for colon adenocarcinoma 51, and 31 days for colon adenocarcinoma 38.
For highly metastatic tumors including: Lewis and Madison lung tumors, colon carcinoma 26 and B16 melanoma and its F10 subline, tumor-bearing mice are monitored for survival time as well. For the less mestastatic tumor models, tumor-bearing mice are killed following tumor measurement. In this setting, an increase in lifespan of ≥30 percent is considered to be evidence of drug activity.

[8] = test system: ip M5076 sarcoma; assay: ip-implanted M5076 sarcoma in mice; type: in vivo, mouse; conditions: ip M5076
Description: as §2, §3

[9] = 2 hr exposure, read-out: IC50 2 Hr. Exposure
[10] = continuous exposure, read-out: IC50 Continuous Exposure

## CC[C@@]1(O)C(=O)OCc2c1cc1n(c2=O)Cc2cc3c(CN(C)C)c(O)ccc3nc2-1 [Compound No. 1S, (20 S) 9-Dimethylaminomethyl-10-hydroxycamptothecin Acetate Salt]
[1]
  MTD: 15 mg/kg
[2]
  Increase in Lifespan (ILS) or Inhibition of Tumor Growth (TGI): Curative
  long term survivors: 2/6
[2]; 15 mg/kg
  Long-Term Survivors: 4/6
[2]; 30 mg/kg
  Increase in lifespan (ILS): toxic
[3]
  solubility in water / aqueous vehicles: water-soluble
[4]; 3.2 mg/kg
  ILS: 14%
  NCK (net tumor cell kill): 0 log
[4]; 5.4 mg/kg
  ILS: 33%
  NCK (net tumor cell kill): 0 log
[4]; 9 mg/kg
  ILS: 90%
  NCK (net tumor cell kill): 2.2 log
[4]; 15 mg/kg
  ILS: 176%
  NCK (net tumor cell kill): 6.0 log
[4]; 25 mg/kg
  ILS: toxic
[4]; P388/doxorubicin in mice
  sensitivity / resistance of subline: retained sensitivity
[5]; [9]
  IC50: 3.9 µg/mL
[5]; [10]
  IC50: 0.017 µg/mL
[6]; [9]
  IC50: 1.2 µg/mL
[6]; [10]
  IC50: 0.052 µg/mL
[7]
  ILS: 53
[7]; 24 mg/kg
  ILS: 39
[7]; sc
  ILS: 52
[7]; C/ip (every 3 hours x4 on Days 1, 5 and 9), 0.78 mg/kg/injection
  Tumor growth inhibition (TGI): 46%
[7]; C/ip (every 3 hours x4 on Days 1, 5 and 9), 1.3 mg/kg/injection
  Tumor growth inhibition (TGI): 64%
[7]; C/ip (every 3 hours x4 on Days 1, 5 and 9), 2.2 mg/kg/injection
  Tumor growth inhibition (TGI): 92%
[7]; C/ip (every 3 hours x4 on Days 1, 5 and 9), 3.6 mg/kg/injection
  Tumor growth inhibition (TGI): 100%
[7]; C/ip (every 3 hours x4 on Days 1, 5 and 9), 6 mg/kg/injection
  Tumor growth inhibition (TGI): 100%
[7]; C/ip, 0.78 mg/kg/injection
  Mice without Palpable Tumors: 1/8
[7]; C/ip, 1.3 mg/kg/injection
  Mice without Palpable Tumors: 1/8
[7]; C/ip, 2.2 mg/kg/injection
  Mice without Palpable Tumors: 2/8
[7]; C/ip, 3.6 mg/kg/injection
  Mice without Palpable Tumors: 7/7
[7]; C/ip, 6 mg/kg/injection
  Mice without Palpable Tumors: 7/7
[7]; F/ip (Days 1, 5 and 9), 3.1 mg/kg/injection
  Tumor growth inhibition (TGI): 63%
[7]; F/ip (Days 1, 5 and 9), 5.2 mg/kg/injection
  Tumor growth inhibition (TGI): 20%
[7]; F/ip (Days 1, 5 and 9), 8.6 mg/kg/injection
  Tumor growth inhibition (TGI): 63%
[7]; F/ip (Days 1, 5 and 9), 14 mg/kg/injection
  Tumor growth inhibition (TGI): 57%
[7]; F/ip (Days 1, 5 and 9), 24 mg/kg/injection
  Tumor growth inhibition (TGI): 99%
[7]; F/ip, 3.1 mg/kg/injection
  Mice without Palpable Tumors: 2/8
[7]; F/ip, 5.2 mg/kg/injection
  Mice without Palpable Tumors: 1/8
[7]; F/ip, 8.6 mg/kg/injection
  Mice without Palpable Tumors: 3/8
[7]; F/ip, 14 mg/kg/injection
  Mice without Palpable Tumors: 3/8
[7]; F/ip, 24 mg/kg/injection
  Mice without Palpable Tumors: 7/8
[7]; F/iv (Days 1, 5 and 9), 3.2 mg/kg/injection
  Tumor growth inhibition (TGI): 54%
[7]; F/iv (Days 1, 5 and 9), 5.4 mg/kg/injection
  Tumor growth inhibition (TGI): 79%
[7]; F/iv (Days 1, 5 and 9), 9 mg/kg/injection
  Tumor growth inhibition (TGI): 96%
[7]; F/iv (Days 1, 5 and 9), 15 mg/kg/injection
  Tumor growth inhibition (TGI): 99%
[7]; F/iv (Days 1, 5 and 9), 25 mg/kg/injection
  Tumor growth inhibition (TGI): toxic
[7]; F/iv, 3.2 mg/kg/injection
  Mice without Palpable Tumors: 2/8
[7]; F/iv, 5.4 mg/kg/injection
  Mice without Palpable Tumors: 3/8
[7]; F/iv, 9 mg/kg/injection
  Mice without Palpable Tumors: 6/8
[7]; F/iv, 15 mg/kg/injection
  Mice without Palpable Tumors: 7/8
[7]; sc B16 Melanoma, optimal doses and optimal schedules
  Increase in Lifespan (ILS) or Inhibition of Tumor Growth (TGI): 100 % TGI
[8]; C/ip (every 3 hours x4 on Days 1, 5 and 9), 0.62 mg/kg/injection
  Increase in lifespan (ILS): 70%
[8]; C/ip (every 3 hours x4 on Days 1, 5 and 9), 1.2 mg/kg/injection
  Increase in lifespan (ILS): 75%
[8]; C/ip (every 3 hours x4 on Days 1, 5 and 9), 5 mg/kg/injection
  Increase in lifespan (ILS): toxic
[8]; C/ip (every 3 hours x4 on Days 1, 5 and 9), 10 mg/kg/injection
  Increase in lifespan (ILS): toxic
[8]; C/sc (every 3 hours x4 on Days 1, 5 and 9), 0.62 mg/kg/injection
  Increase in lifespan (ILS): 36%
